14 molecules from US20180194762A1 (Pharmacyclics LLC, priority 2017, published 2018) can be followed below.

The structures appear in SMILES notation. Where two headings read alike, the source gives them in different places.

Type in all cases: biochemical
One assay has as its target T1, Btk (Homo sapiens, UniProt Q06187).
T1 construct: purified from insect cells as a full-length construct containing a N-terminal 6X-His tag; His6 (N); made in house; host or cells: insect cells (Method C)
Description: Btk in vitro inhibitory activity (one of Method A TR-FRET, Method B electrophoretic mobility shift, Method C radiometric filter binding). In short, it runs like this:
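Three alternative formats were used. A radiometric filter-binding read used 8 nM full-length His-BTK with 0.2 mg/mL poly(Glu-Tyr) 4:1 (C); microfluidic separation of 1 μM FAM-peptide by 1 nM BTK gave IC50 from 12-point curves (B); TR-FRET at Km ATP, 0.5 nM Btk, gave Ki(app)-derived IC50 (A).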

The target in another assay is T2, panel of kinases (Homo sapiens, UniProt P51813).
T2 sequence (P51813 1-675): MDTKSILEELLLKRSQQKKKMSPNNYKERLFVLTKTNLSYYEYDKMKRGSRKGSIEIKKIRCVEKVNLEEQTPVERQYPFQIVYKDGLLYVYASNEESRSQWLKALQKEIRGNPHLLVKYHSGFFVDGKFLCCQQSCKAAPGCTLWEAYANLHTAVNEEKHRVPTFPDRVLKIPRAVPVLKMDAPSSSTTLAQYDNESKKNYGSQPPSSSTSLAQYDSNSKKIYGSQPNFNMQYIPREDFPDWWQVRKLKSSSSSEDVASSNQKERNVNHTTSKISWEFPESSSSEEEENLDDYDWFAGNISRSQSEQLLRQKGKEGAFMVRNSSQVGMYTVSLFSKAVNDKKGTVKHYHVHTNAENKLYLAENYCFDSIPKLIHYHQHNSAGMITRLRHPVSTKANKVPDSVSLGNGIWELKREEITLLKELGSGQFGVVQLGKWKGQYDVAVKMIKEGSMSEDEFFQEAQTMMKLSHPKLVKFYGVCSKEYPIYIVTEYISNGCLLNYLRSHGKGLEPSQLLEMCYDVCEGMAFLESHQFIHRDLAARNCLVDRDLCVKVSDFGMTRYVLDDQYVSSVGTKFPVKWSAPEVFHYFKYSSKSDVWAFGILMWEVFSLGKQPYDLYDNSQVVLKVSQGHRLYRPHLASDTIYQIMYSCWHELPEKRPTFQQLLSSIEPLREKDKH
As to the kind of experiment: Inhibition of a panel of kinases (in vitro HotSpot kinase assay, 33P-ATP, 1 μM ATP), other kinases. The following applies: BMX wild-type, read-out: BMX-WT IC50. A digest of the protocol: (§1)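 Radiometric read-out: 33P transfer to a suitable substrate by each purified enzyme, ATP at 1 μM. Values are degree of inhibition.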

Another assay deals with T3, TEC (Homo sapiens, UniProt P42680).
T3 sequence (P42680 1-631): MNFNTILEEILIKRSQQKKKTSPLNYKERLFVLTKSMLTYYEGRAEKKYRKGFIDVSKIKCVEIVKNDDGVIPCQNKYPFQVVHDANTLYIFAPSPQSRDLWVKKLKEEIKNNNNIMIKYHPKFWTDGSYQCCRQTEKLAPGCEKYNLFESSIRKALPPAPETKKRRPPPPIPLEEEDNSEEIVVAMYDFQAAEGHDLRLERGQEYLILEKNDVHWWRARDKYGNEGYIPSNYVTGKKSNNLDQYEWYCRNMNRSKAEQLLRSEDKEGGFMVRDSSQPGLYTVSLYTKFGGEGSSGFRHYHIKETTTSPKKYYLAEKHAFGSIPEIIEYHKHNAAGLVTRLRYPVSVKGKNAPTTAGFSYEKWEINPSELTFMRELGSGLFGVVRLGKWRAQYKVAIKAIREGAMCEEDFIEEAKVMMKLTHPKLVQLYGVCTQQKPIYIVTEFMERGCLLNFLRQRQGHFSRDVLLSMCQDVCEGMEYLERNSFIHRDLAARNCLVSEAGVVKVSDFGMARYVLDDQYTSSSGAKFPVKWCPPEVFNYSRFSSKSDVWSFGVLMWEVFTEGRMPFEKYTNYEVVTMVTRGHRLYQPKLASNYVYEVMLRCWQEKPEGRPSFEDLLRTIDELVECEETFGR
As to the kind of experiment: Inhibition of a panel of kinases (in vitro HotSpot kinase assay, 33P-ATP, 1 μM ATP). Particulars: for IC50: HotSpot kinase assay, 1 μM ATP; for TEC/Btk: ratio of TEC IC50 to Btk IC50 (selectivity). A digest of the protocol:
as §1

[1] abbreviates: wild-type Btk, read-out: Btk-WT IC50.
[2] abbreviates: method is one of A, B or C, not stated which, read-out: IC50 values against Btk.

T1 sequence (Q06187 whole entry): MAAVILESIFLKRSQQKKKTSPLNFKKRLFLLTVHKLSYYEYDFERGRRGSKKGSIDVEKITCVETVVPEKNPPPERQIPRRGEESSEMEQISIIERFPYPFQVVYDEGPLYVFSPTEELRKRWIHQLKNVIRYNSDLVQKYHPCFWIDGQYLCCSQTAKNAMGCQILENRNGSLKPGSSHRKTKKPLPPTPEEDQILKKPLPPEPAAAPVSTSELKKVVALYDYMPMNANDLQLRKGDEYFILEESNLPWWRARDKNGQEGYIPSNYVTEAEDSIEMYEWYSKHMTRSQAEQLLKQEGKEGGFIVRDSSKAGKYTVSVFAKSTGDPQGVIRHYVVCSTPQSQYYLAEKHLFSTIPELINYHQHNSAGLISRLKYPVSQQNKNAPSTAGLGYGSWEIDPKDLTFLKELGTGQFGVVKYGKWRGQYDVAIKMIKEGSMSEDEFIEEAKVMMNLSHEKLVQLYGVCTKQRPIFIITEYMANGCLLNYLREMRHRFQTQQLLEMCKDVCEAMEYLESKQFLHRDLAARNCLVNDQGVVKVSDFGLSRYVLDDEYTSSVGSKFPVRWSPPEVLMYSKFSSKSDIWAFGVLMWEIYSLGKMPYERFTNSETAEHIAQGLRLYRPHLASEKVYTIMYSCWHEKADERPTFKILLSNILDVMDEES

`C[C@@H](NC(=O)c1nc(C(C)(C)C)no1)c1ccc(-c2ccnc3[nH]nc(N4CCC(NS(C)(=O)=O)CC4)c23)cc1` [Example 396, 3-tert-butyl-N-{(1R)-1-[4-(3-{4-[(methanesulfonyl)amino]piperidin-1-yl}-1H-pyrazolo[3,4-b]pyridin-4-yl)phenyl]ethyl}-1,2,4-oxadiazole-5-carboxamide]: the IC50 on Btk (setting [1]) came to 0.488 nM; on panel of kinases, 1190 nM; on TEC, 235 nM.
For the molecule `CC(C)(C)c1ccc2c(c1)CCN(Cc1ccc(-c3ccnc4[nH]nc(N[C@@H]5CCNC5)c34)cc1F)C2=O` [Compound 36, 6-tert-butyl-2-{[2-fluoro-4-(3-{[(3R)-pyrrolidin-3-yl]amino}-1H-pyrazolo[3,4-b]pyridin-4-yl)phenyl]methyl}-1,2,3,4-tetrahydroisoquinolin-1-one], the half-maximal inhibitory concentration (IC50) on Btk (setting [1]) was 433 nM; at panel of kinases, above 10000 nM; against TEC, above 10000 nM. Besides, the TEC/Btk at TEC is above 100.
As to `CC(C)(C)c1ccc(C(=O)Nc2cccc(-c3ccnc4[nH]nc(N[C@@H]5CCNC5)c34)c2CO)cc1` [Example 150, 4-tert-butyl-N-[2-(hydroxymethyl)-3-(3-{[(3R)-pyrrolidin-3-yl]amino}-1H-pyrazolo[3,4-b]pyridin-4-yl)phenyl]benzamide], the figures for the IC50 at Btk (setting [1]), at panel of kinases and against TEC were 35.3 nM, above 10000 nM and above 10000 nM, respectively. On TEC, the TEC/Btk is above 100.
`CC(C)(C)c1nc(C(=O)NCc2ccc(-c3ccnc4[nH]nc(N[C@@H]5CCNC5)c34)cc2F)co1` [Example 180, 2-tert-butyl-N-{[2-fluoro-4-(3-{[(3R)-pyrrolidin-3-yl]amino}-1H-pyrazolo[3,4-b]pyridin-4-yl)phenyl]methyl}-1,3-oxazole-4-carboxamide]: the IC50 is 23.8 nM on Btk (setting [1]), above 10000 nM at panel of kinases and 7180 nM against TEC. For the same molecule, the TEC/Btk at TEC stood at 302.
Regarding `CC(C)(C)c1cccc(C(=O)NCc2ccc(-c3ccnc4[nH]nc(N[C@@H]5CCNC5)c34)cc2F)c1` [Example 62, 3-tert-butyl-N-{[2-fluoro-4-(3-{[(3R)-pyrrolidin-3-yl]amino}-1H-pyrazolo[3,4-b]pyridin-4-yl)phenyl]methyl}benzamide], the IC50 at Btk (setting [1]) was 861 nM; on panel of kinases it was 2140 nM; against TEC it was 3340 nM. For the same molecule, the TEC/Btk on TEC is recorded as 4.
The like results for `CC(=O)N1CC[C@H](Nc2n[nH]c3nccc(-c4ccc(CNC(=O)c5nc(C(C)(C)C)no5)c(F)c4)c23)C1` [Example 164, N-{[4-(3-{[(3S)-1-acetylpyrrolidin-3-yl]amino}-1H-pyrazolo[3,4-b]pyridin-4-yl)-2-fluorophenyl]methyl}-3-tert-butyl-1,2,4-oxadiazole-5-carboxamide] were, in that order, 11.3 nM, 8340 nM, 8070 nM and 714.
The like results for `C=CC(=O)N1CC[C@@H](Oc2n[nH]c3nccc(-c4ccc(CNC(=O)c5noc(C(C)(C)C)n5)c(F)c4)c23)C1` [Example 272, 5-tert-butyl-N-{[2-fluoro-4-(3-{[(3R)-1-(prop-2-enoyl)pyrrolidin-3-yl]oxy}-1H-pyrazolo[3,4-b]pyridin-4-yl)phenyl]methyl}-1,2,4-oxadiazole-3-carboxamide] were, in that order, 0.0732 nM, 39.2 nM, 18.9 nM and 258.
The like results for `C[C@@H](NC(=O)c1nc(C(C)(C)C)no1)c1ccc(-c2ccnc3[nH]nc(N4CCS(=O)(=O)CC4)c23)cc1` [Example 220, 3-tert-butyl-N-[(1R)-1-{4-[3-(1,1-dioxo-1λ^6-thiomorpholin-4-yl)-1H-pyrazolo[3,4-b]pyridin-4-yl]phenyl}ethyl]-1,2,4-oxadiazole-5-carboxamide] were, in that order, 1.49 nM, 5700 nM, 8960 nM and 6013.
On to `C=CC(=O)N1CC[C@@H](Nc2n[nH]c3nccc(-c4ccc([C@@H](C)NC(=O)c5noc(C(C)(C)C)n5)cc4)c23)C1` [Example 98, 5-tert-butyl-N-[(1R)-1-[4-(3-{[(3R)-1-(prop-2-enoyl)pyrrolidin-3-yl]amino}-1H-pyrazolo[3,4-b]pyridin-4-yl)phenyl]ethyl]-1,2,4-oxadiazole-3-carboxamide], for which the IC50 on Btk (setting [2]) is below 10 nM; at Btk (setting [1]), 0.165 nM; at panel of kinases, 239 nM; against TEC, 108 nM. Moreover, at TEC, the TEC/Btk came out at 652.
The like results for `C=CC(=O)N1CCC(Nc2n[nH]c3nccc(-c4ccc(CNC(=O)c5noc(C(C)(C)C)n5)c(F)c4)c23)CC1` [Example 105, 5-tert-butyl-N-{[2-fluoro-4-(3-{[1-(prop-2-enoyl)piperidin-4-yl]amino}-1H-pyrazolo[3,4-b]pyridin-4-yl)phenyl]methyl}-1,2,4-oxadiazole-3-carboxamide] were, in that order, below 10 nM, 0.457 nM, 312 nM, 470 nM and 1028.
Turning to `CC(=O)N1C[C@H](Nc2n[nH]c3nccc(-c4ccc(CNC(=O)c5noc(C(C)(C)C)n5)c(F)c4)c23)CC[C@@H]1C` [Example 229, N-{[4-(3-{[(3R,6S)-1-acetyl-6-methylpiperidin-3-yl]amino}-1H-pyrazolo[3,4-b]pyridin-4-yl)-2-fluorophenyl]methyl}-5-tert-butyl-1,2,4-oxadiazole-3-carboxamide], the values for the IC50 on Btk (setting [1]), at panel of kinases and on TEC were 0.383 nM, 531 nM and 298 nM, respectively. At TEC, the TEC/Btk came to 778.
With `CC(C)(C)c1ccc2c(c1)CCN(Cc1ccc(-c3ccnc4[nH]nc(N[C@H]5CC[C@H](O)CC5)c34)cc1F)C2=O` [Compound 38, 6-tert-butyl-2-{[2-fluoro-4-(3-{[(11r,4r)-4-hydroxycyclohexyl]amino}-1H-pyrazolo[3,4-b]pyridin-4-yl)phenyl]methyl}-1,2,3,4-tetrahydroisoquinolin-1-one], the IC50 at Btk (setting [1]), at panel of kinases and at TEC was above 10000 nM in each case.
Turning to `C[C@@H]1[C@H](Nc2n[nH]c3nccc(-c4ccc(CNC(=O)c5noc(C(C)(C)C)n5)c(F)c4)c23)CCCN1C(=O)C1CC1` [Example 126, 5-tert-butyl-N-{[4-(3-{[(2R,3R)-1-cyclopropanecarbonyl-2-methylpiperidin-3-yl]amino}-1H-pyrazolo[3,4-b]pyridin-4-yl)-2-fluorophenyl]methyl}-1,2,4-oxadiazole-3-carboxamide], the IC50 worked out at 38.4 nM on Btk (setting [1]), 5450 nM on panel of kinases and 4430 nM on TEC. On TEC, the TEC/Btk is recorded as 115.
Take `CC(C)(C)c1ccc(C(=O)NCc2cc(F)cc(-c3ccnc4[nH]nc(N[C@@H]5CCNC5)c34)c2)cc1` [Example 75, 4-tert-butyl-N-{[3-fluoro-5-(3-{[(3R)-pyrrolidin-3-yl]amino}-1H-pyrazolo[3,4-b]pyridin-4-yl)phenyl]methyl}benzamide]: the IC50 at Btk (setting [1]), on panel of kinases and at TEC was above 10000 nM in each case.

The IC50 is the concentration that gives 50% inhibition.
